According to patent US20120122848A1, “(+)-3-HYDROXYMORPHINAN DERIVATIVES AS NEUROPROTECTANTS” (GREEN CROSS CORPORATION, priority 2009, published 2012):
Where a name gives a salt, the structure may show the parent alone.

How the values were obtained:
[1] = tested on: HT22 cells (mouse hippocampal neuron); experiment: Cell cytotoxicity test: protection of HT22 cells against glutamate toxicity (EC50) and cytotoxicity of the compounds (CC50), MTT; type: cell-based; conditions: Mus musculus, HT-22, five millimolar glutamate, 24 hrs, read-out: EC50 (neuroprotective effect against glutamate toxicity)
In short: (§1)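 Cells plated 16 hrs, then exposed to 5 mM glutamate plus a compound concentration series for 24 hrs in DMEM with 10% FBS. Viability by MTT (4 hrs), absorbance at 450 nm; EC50 is protection against glutamate toxicity, CC50 is compound cytotoxicity.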

[2] = as above; type: cell-based, mouse; conditions: mouse, HT22 cells (mouse hippocampal neuron)
In short: as §1

SirT1 [3] = experiment: Western blotting analysis of SirT1 in glutamate-treated HT22 cells; type: cell-based, mouse; conditions: 10 mM glutamate, 18 hrs
Method: HT22 cells (1.5×10^7) plated in a 100 mm dish were treated with 10 mM glutamate in the absence or presence of 3-HM.HBr or the compound of Example 26, and incubated for 18 hrs. The cells were collected by scraping in a sample buffer (3% SDS, 1% glycerol, 0.5% 2-mercaptoethanol, 0.05% bromophenol blue, and 80 mM Tris-HCl buffer, pH 6.8, with complete protease inhibitors). The resulting suspention was centrifuged and the pellets thus obtained were re-suspended in the sample buffer. The samples were heated for 3 min in boiling water, fractionated on 4-20% polyacrylamide gels, and electroblotted onto membranes. SirT1 affinity purified polyclonal antibody was used as the primary antibody. Immunoreactive bands were detected with the ECL (Amersham Pharmacia Biotech, Arlington Heights, Ill.) Western blotting detection reagents [Kumiko, I. et al., The Activation of Dopamine D4 Receptors Inhibits Oxidative Stress-Induced Nerve Cell Death., J. Neurosci., 2001, 21(16):6069-6076]. […]

SirT1 [4] = experiment: RT-PCR analysis of target gene expression under glutamate toxicity in HT22 cells; type: cell-based, mouse; conditions: 10 mM glutamate, 18 hrs
Method: HT22 cells (1.5×10^7) plated in a 100 mm dish were treated with 10 mM glutamate in the absence or presence of 3-HM.HBr or the compound of Example 26 and incubated for 18 hrs. Oligonucleotide primers used for the PCR amplification were DJ-1 (PARK7), LRRK2 (Leucine-rich repeat kinase 2), PINK1 (PTEN induced putative kinase 1), SirT1 (silent mating type information regulation 2 homolog 1 (S. cerevisiae)), SirT2 (silent mating type information regulation 2 homolog 2 (S. cerevisiae)), and others. PCR products were electrophoresed on 2% agarose gels and detected by ethidium bromide [Kumiko I. et al., The Activation of Dopamine D4 Receptors Inhibits Oxidative Stress-Induced Nerve Cell Death., J. Neurosci., 2001].
FIG. 2A and FIG. 2B show the results of reverse transcription polymerase chain reaction.
In FIG. 2A, Lane 1 is mock, Lane 2 is the group treated with 10 mM Glutamate, and Lane 3 is the group treated with 10 mM Glutamate and 100 uM 3-HM.HBr. […]

[5] = Total antioxidant activity assay (TEAC; metmyoglobin, 2,2′-azinobis(3-ethylbenzoline 6-sulfonate), H2O2); conditions: for EC50: 7.5 min at 30° C., absorbance at 734 nm
Method: Briefly, 1 ml of reaction mixture including 2.5 μM metmyoglobin, 150 μM 2,2′-azinobis(3-ethylbenzoline 6-sulfonate), 75 μM H2O2, and 0.84% sample or Trolox (for standard) in PBS was incubated for 7.5 min at 30° C.; then the absorbance at 734 nm was measured. The data are normalized to 1 mM Trolox (TEAC activity) [Kumiko I. et al., The Activation of Dopamine D4 Receptors Inhibits Oxidative Stress-Induced Nerve Cell Death., J. Neurosci., 2001]. The EC50 values were analyzed statistically using Prizm® (GraphPad Software Inc., San Diego, Calif., USA).

HT22 cells = experiment: ROS measurement using DCFDA in glutamate-treated HT22 cells; type: cell-based; conditions: Mus musculus, HT-22, 5 mM glutamate, 8 hrs
Method: HT22 cells (1×10^4) plated in a 96-well plate were treated with 5 mM glutamate in the absence or presence of 3-HM.HBr or the compound of Example 26, and incubated for 8 hrs. After washing with PBS, cells were stained with 10 μM 2,7-dichlorodihydrofluorescein diacetate (DCFDA) in HBSS (Hank's balanced salt solution, Gibco) for 30 min in the dark. Then the cells were washed with PBS twice and extracted with 1% Triton X-100 in PBS for 10 min at 37° C. Fluorescence was recorded with the excitation wavelength of 490 nm and the emission wavelength of 525 nm (Infinite M200, TECAN) [Da-Qing, et. al., Anti-oxidant and anti-inflammatory activities of macelignan in murine hippocampal cell line and primary culture of rat microglia cells, BBRC, 2005, 331, 1264-1269]. The EC50 values were analyzed statistically using Prizm® (GraphPad Software Inc., San Diego, Calif., USA).

[6] = tested on: dopamine (DA) neurons in substantia nigra pars compacta; conditions: MPTP model, daily injections; cited from earlier work

Row | SMILES | EC50 [1] | CC50 at 24 h [2] | also measured
1 | Oc1ccc2c(c1)[C@]13CCCC[C@@H]1[C@H](C2)NCC3 [3-HM•HBr, (+)-3-hydroxymorphinan HBr, reference compound] | 31.3 µM | > 100 µM | SirT1 expression (Western blotting) (SirT1 [3]): this decreasing was protected; SirT1 expression levels (RT-PCR) (SirT1 [4]): decreased SirT1 expression levels were elevated; inhibition (total antioxidant activity) ([5]; at 100 μM): 22.4%; EC50 (HT22 cells): 38.5 µM
2 | Oc1ccc2c(c1)[C@]13CCCC[C@@H]1[C@H](C2)NCC3 [(+)-3-HM, (+)-3-Hydroxymorphinan] |  |  | DA levels in striatum [6]: DA levels in striatum has been restored; protection of DA neurons in substantia nigra pars compacta [6]: dopamine (DA) neurons in substantia nigra pars compacta have been protected
3 | Cc1c(C)c2c(c(C)c1O)CCC(C)(C(=O)O)O2 (stereo not shown) [Trolox] |  |  | EC50 [5]: 47.5 µM
4 | Oc1cc2c(cc1Nc1ccc(Cl)c(Cl)c1)C[C@@H]1NCC[C@]23CCCC[C@H]13 [Example 65, (+)-2-(3,4-Dichlorophenylamino)-3-hydroxymorphinan TFA salt] | 0.314 µM | 1.6 µM | 
5 | CC(=O)Nc1ccc(Nc2cc3c(cc2O)[C@]24CCCC[C@@H]2[C@H](C3)NCC4)cc1 [Example 116, TFA salt] | 2.84 µM | 36.5 µM | 
6 | Oc1cc2c(cc1Sc1ccccc1)C[C@@H]1NCC[C@]23CCCC[C@H]13 [Example 73, (+)-3-Hydroxy-2-phenylthiomorphinan TFA salt] | 1.67 µM | 5.57 µM | 
7 | CN(C)c1ccccc1Nc1cc2c(cc1O)[C@]13CCCC[C@@H]1[C@H](C2)NCC3 [Example 126, (+)-2-(2-(Dimethylamino)phenylamino)-3-hydroxymorphinan TFA salt] | 0.0121 µM | 6.1 µM | 
8 | CC(C)Cc1cc2c(cc1O)[C@]13CCCC[C@@H]1[C@H](C2)NCC3 [Example 81, (+)-3-Hydroxy-2-isobutylmorphinan TFA salt] | 1.43 µM | 11.3 µM | 
9 | Oc1cc2c(cc1Nc1ccccc1OC(F)(F)F)C[C@@H]1NCC[C@]23CCCC[C@H]13 [Example 59, (+)-3-Hydroxy-2-(2-(trifluoromethoxy)phenylamino)morphinan TFA salt] | 0.0693 µM | 1.7 µM | 
10 | CS(=O)(=O)Nc1ccc(Nc2cc3c(cc2O)[C@]24CCCC[C@@H]2[C@H](C3)NCC4)cc1 [Example 114, (+)-3-Hydroxy-2-(4-(methanesulfonamido)phenylamino)morphinan TFA salt] | 0.0329 µM | 11.4 µM | 
11 | O=C(O)c1ccccc1Nc1cc2c(cc1O)[C@]13CCCC[C@@H]1[C@H](C2)NCC3 [Example 109, (+)-2-(2-Carboxyphenylamino)-3-hydroxymorphinan TFA salt] | 14.1 µM | > 100 µM | 
12 | CC(C)(C)c1ccccc1Nc1cc2c(cc1O)[C@]13CCCC[C@@H]1[C@H](C2)NCC3 [Example 51, (+)-2-(2-t-Butylphenylamino)-3-hydroxymorphinan TFA salt] | 0.036 µM | 1.4 µM | 
13 | Oc1cc2c(cc1NC1CCCC1)C[C@@H]1NCC[C@]23CCCC[C@H]13 [Example 92, (+)-2-Cyclopentylamino-3-hydroxymorphinan TFA salt] | 0.0927 µM | 378 µM | 
14 | CCc1ccc(Nc2cc3c(cc2O)[C@]24CCCC[C@@H]2[C@H](C3)NCC4)cc1 [Example 53, (+)-2-(4-Ethylphenylamino)-3-hydroxymorphinan TFA salt] | 0.0402 µM | 1.6 µM | 
15 | Oc1cc2c(cc1Nc1cccc(F)c1)C[C@@H]1NCC[C@]23CCCC[C@H]13 [Example 39, (+)-2-(3-Fluorophenylamino)-3-hydroxymorphinan TFA salt] | 0.145 µM | 13.8 µM | 
16 | Oc1cc2c(cc1Nc1ccc(OC(F)(F)F)cc1)C[C@@H]1NCC[C@]23CCCC[C@H]13 [Example 58, (+)-3-Hydroxy-2-(4-(trifluoromethoxy)phenylamino)morphinan TFA salt] | 0.131 µM | 1.4 µM | 
17 | CCc1ccccc1Nc1cc2c(cc1O)[C@]13CCCC[C@@H]1[C@H](C2)NCC3 [Example 49, (+)-2-(2-Ethylphenylamino)-3-hydroxymorphinan TFA salt] | 0.0328 µM | 1.1 µM | 
18 | Oc1cc2c(cc1N1CCCC1)C[C@@H]1NCC[C@]23CCCC[C@H]13 [Example 22, (+)-3-Hydroxy-2-(pyrrolidin-1-yl)morphinan TFA salt] | 0.638 µM | 80.5 µM | 
19 | CCOC(=O)Nc1ccccc1Nc1cc2c(cc1O)[C@]13CCCC[C@@H]1[C@H](C2)NCC3 [Example 117, (+)-2-(2-(Ethoxycarbonylamino)phenylamino)-3-hydroxymorphinan TFA salt] | 1.08 µM | 36.5 µM | 
20 | Oc1ccc(Nc2cc3c(cc2O)[C@]24CCCC[C@@H]2[C@H](C3)NCC4)cc1 [Example 26, (+)-3-Hydroxy-2-(4-hydroxyphenylamino)morphinan TFA salt] | 0.00459 µM | 2.31 µM | SirT1 expression (Western blotting) (SirT1 [3]): this decreasing was protected; SirT1 expression levels (RT-PCR) (SirT1 [4]): decreased SirT1 expression levels were elevated; EC50 [5]: 32.4 µM; EC50 (HT22 cells): 3.11 µM
21 | Cc1cc(C)cc(Nc2cc3c(cc2O)[C@]24CCCC[C@@H]2[C@H](C3)NCC4)c1 [Example 27, (+)-2-(3,5-Dimethylphenylamino)-3-hydroxymorphinan TFA salt] | 0.0273 µM | 1.52 µM | 
